One assay deals with T1, CCKB receptor (Mus musculus, UniProt P56481).
T1 construct: The whole brains from male mice (CD1 22-25 g; Charles River) were removed; from tissue; host or cells: cerebral cortex membranes of male CD1 mice
T1 sequence (P56481 1-453): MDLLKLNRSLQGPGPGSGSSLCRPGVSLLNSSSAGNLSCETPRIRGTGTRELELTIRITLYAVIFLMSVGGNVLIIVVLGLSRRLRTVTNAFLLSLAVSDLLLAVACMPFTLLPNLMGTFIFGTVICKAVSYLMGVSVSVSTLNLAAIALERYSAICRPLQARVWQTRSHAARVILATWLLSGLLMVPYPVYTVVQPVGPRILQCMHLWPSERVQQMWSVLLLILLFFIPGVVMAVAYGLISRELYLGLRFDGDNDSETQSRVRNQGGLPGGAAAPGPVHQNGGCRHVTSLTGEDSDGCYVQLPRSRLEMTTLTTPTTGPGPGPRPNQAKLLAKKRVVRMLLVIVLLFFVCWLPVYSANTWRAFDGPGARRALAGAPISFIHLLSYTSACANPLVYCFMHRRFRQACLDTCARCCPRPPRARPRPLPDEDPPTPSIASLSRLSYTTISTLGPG
Kind of assay: CCKB receptor radioligand binding assay in mouse cortical membranes. The following applies: [125I]-CCK8(S) 200 pM, 150 min at 21±3°; for Ki: read-out: CCKB pKi (converted). The procedure: The compounds of the examples were tested for binding at the CCKB receptor in mouse cortical membranes by means of a radioligand binding assay. The procedure was as follows:
The whole brains from male mice (CD1 22-25 g; Charles River) were removed and placed in ice-cold buffer (pH 7.2 @ 21±3°) of the following composition (mM); 10 HEPES, 130 NaCl, 4.7 KCl, 5 MgCl2, 1 EDTA and containing 0.25 gl^−1 bacitracin. The cortex was dissected, weighed and homogenised in 40 ml ice-cold buffer using a Teflon-in-glass homogeniser. The homogenate was centrifuged at 39800 g for 20 min […], the supernatant discarded and the pellet resuspended by homogenisation in fresh buffer. The homogenate was recentrifuged (39800 g, 20 min @ 4°) and the final pellet was resuspended in HEPES buffer to give a tissue concentration of 20 mg ml^−1 (original wet weight).
The assay was terminated by rapid filtration through pre-soaked Whatman GF/B filters using a Brandell Cell Harvester. The filters were washed (3×3 ml) with ice-cold 50 mM Tris-HCl (pH 7.4 @ 4° C.) and bound radioactivity determined by counting (1 min) in a gamma-counter.

In the next assay the target is T2, gastrin receptor (Rattus norvegicus, UniProt P30553).
T2 construct: The stomach was excised and flushed with ca. 1 ml of unbuffered physiological saline solution; from tissue; host or cells: isolated whole stomach of immature rats (ca. 21 days old)
T2 sequence (P30553 1-452): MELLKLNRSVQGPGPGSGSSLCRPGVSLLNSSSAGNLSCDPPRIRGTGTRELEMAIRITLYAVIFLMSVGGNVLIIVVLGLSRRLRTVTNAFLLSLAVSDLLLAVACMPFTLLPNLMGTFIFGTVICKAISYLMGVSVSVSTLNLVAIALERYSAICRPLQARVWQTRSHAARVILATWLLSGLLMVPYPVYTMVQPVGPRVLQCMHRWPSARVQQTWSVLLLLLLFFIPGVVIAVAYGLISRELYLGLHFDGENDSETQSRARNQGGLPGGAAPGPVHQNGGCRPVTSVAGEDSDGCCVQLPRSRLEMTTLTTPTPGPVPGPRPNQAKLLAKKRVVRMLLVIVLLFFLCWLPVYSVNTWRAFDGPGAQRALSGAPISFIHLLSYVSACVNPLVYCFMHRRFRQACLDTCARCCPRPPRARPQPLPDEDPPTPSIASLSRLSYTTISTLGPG
Kind of assay: gastrin antagonist activity in immature rat stomach assay (pentagastrin dose-response, acid secretion). The settings on record: isolated immature rat stomach, cumulative pentagastrin dose-response curves; for Kb: read-out: Gastrin pKb (converted). The method, boiled down:
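Isolated, lumen-perfused stomach from immature rats (33-50 g, ca. 21 days) in a 37° organ bath with 3×10^−8 M 5-methylfurmethide, gassed 95% O2/5% CO2. Compound added serosally after 120 min stabilisation; cumulative pentagastrin dose-response curves begun 60 min later, acid secretion followed by perfusate pH.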

The source of these data is patent US6479531B1, “Gastrin and cholecystokinin receptor ligands” (James Black Foundation Limited, priority 1998, dated 2002).

Regarding “3-{[5-(2-Methyl-butyl)-2-o-tolyl-1H-imidazole-4-carbonyl]-amino}-benzoic Acid [Example 90]”, the “CCKB pKi” value at CCKB receptor is on record as 5.16.

With “5-[(2-Adamantan-1-ylmethyl-5-phenyl-1H-pyrrole-3-carbonyl)-amino-methyl]-isophthalic Acid [Example 9]”, at CCKB receptor, the “CCKB pKi” value came to 5.88.

As to `Cc1ccccc1-c1nc(C(=O)N2CCCC(C(=O)O)C2)c(CCC23CC4CC(CC(C4)C2)C3)[nH]1` (racemic) [Example 93, (±)-1-[5-(2-Adamantan-1-yl-ethyl)-2-o-tolyl-1H-imidazole-4-carbonyl]-piperidine-3-carboxylic Acid], the Ki at CCKB receptor was 2510 nM.

On to `Cc1ccccc1-c1nc(C(=O)N2CCC(C(=O)O)CC2)c(CCC23CC4CC(CC(C4)C2)C3)[nH]1` (racemic) [Example 94, (±)-1-[5-(2-Adamantan-1-yl-ethyl)-2-o-tolyl-1H-imidazole-4-carbonyl]-piperidine-4-carboxylic Acid], for which, at CCKB receptor, the Ki was 5370 nM.

`Cc1ccc(NC(=O)c2nc(C3CCCCCC3)[nH]c2COC23CC4CC(CC(C4)C2)C3)cc1C(=O)O` [Example 296, 5-{[5-(Adamantan-1-yloxymethyl)-2-cycloheptyl-1H-imidazole-4-carbonyl]-amino}-2-methyl-benzoic Acid]: the Kb on gastrin receptor was 2.09 nM.

As for `O=C(O)c1cccc(NC(=O)c2nc(C3CCCCCCC3)[nH]c2COC23CC4CC(CC(C4)C2)C3)c1` [Example 297, 3-{[5-(Adamantan-1-yloxymethyl)-2-cyclooctyl-1H-imidazole-4-carbonyl]-amino}-benzoic Acid], the Kb at gastrin receptor is 0.851 nM.

`Cc1ccc(NC(=O)c2nc(C3CCCCCCC3)[nH]c2COC23CC4CC(CC(C4)C2)C3)cc1C(=O)O` [Example 298, 5-{[5-(Adamantan-1-yloxymethyl)-2-cyclooctyl-1H-imidazole-4-carbonyl]-amino}-2-methyl-benzoic Acid]: the Kb at gastrin receptor was 1.95 nM.

With `O=C(O)c1cc(NC(=O)c2nc(C3CCCCC3)[nH]c2COC23CC4CC(CC(C4)C2)C3)ccc1F` [Example 299, 5-{[5-(Adamantan-1-yloxymethyl)-2-cyclohexyl-1H-imidazole-4-carbonyl]-amino}-2-fluoro-benzoic Acid], the Kb on gastrin receptor was 20.4 nM.

In the case of `Cc1ccc(NC(=O)c2nc(C34CCC(CC3)CC4)[nH]c2COC23CC4CC(CC(C4)C2)C3)cc1C(=O)O` [Example 300, 5-{[5-(Adamantan-1-yloxymethyl)-2-bicyclo[2.2.2]oct-1-yl-1H-imidazole-4-carbonyl]-amino}-2-methyl-benzoic Acid], the Kb at gastrin receptor was 3.02 nM.

Turning to `Cc1ccc(NC(=O)c2nc(C34C=CC(CC3)CC4)[nH]c2COC23CC4CC(CC(C4)C2)C3)cc1C(=O)O` [Example 301, 5-{[5-(Adamantan-1-yloxymethyl)-2-bicyclo[2.2.2]oct-2-en-1-yl-1H-imidazole-4-carbonyl]-amino}-2-methyl-benzoic Acid], on gastrin receptor, the Kb is 2.63 nM.

For the compound `CCCCCC12CCC(c3nc(C(=O)Nc4cccc(C(=O)O)c4)c(COC45CC6CC(CC(C6)C4)C5)[nH]3)(CC1)CC2` [Example 302, 3-{[5-(Adamantan-1-yloxymethyl)-2-(4-pentyl-bicyclo[2.2.2]oct-1-yl)-1H-imidazole-4-carbonyl]-amino}-benzoic Acid], the Kb at gastrin receptor is 589 nM.

As to `CC1(c2nc(C(=O)Nc3cccc(C(=O)O)c3)c(COC34CC5CC(CC(C5)C3)C4)[nH]2)CCCCC1` [Example 303, 3-{[5-(Adamantan-1-yloxymethyl)-2-(1-methyl-cyclohexyl)-1H-imidazole-4-carbonyl]-amino}-benzoic Acid], the Kb on gastrin receptor was 11.7 nM.

In the case of `Cc1ccccc1-c1nc(C(=O)Nc2cccc(C(=O)O)c2)c(COC23CC4CC(CC(C4)C2)C3)[nH]1` [Example 304, 3-{[5-(Adamantan-1-yloxymethyl)-2-o-tolyl-1H-imidazole-4-carbonyl]-amino}-benzoic Acid], on gastrin receptor, the Kb is 24 nM.

Take `Cc1ccc(NC(=O)c2nc(-c3ccccc3C)[nH]c2COC23CC4CC(CC(C4)C2)C3)cc1C(=O)O` [Example 305, 5-{[5-(Adamantan-1-yloxymethyl)-2-o-tolyl-1H-imidazole-4-carbonyl]-amino}-2-methyl-benzoic Acid]: the Kb on gastrin receptor is 10 nM.

Turning to `N#Cc1ccccc1-c1nc(C(=O)Nc2cccc(C(=O)O)c2)c(COC23CC4CC(CC(C4)C2)C3)[nH]1` [Example 306, 3-{[5-(Adamantan-1-yloxymethyl)-2-(2-cyano-phenyl)-1H-imidazole-4-carbonyl]-amino}-benzoic Acid], the Kb on gastrin receptor is 58.9 nM.

`O=C(O)c1cccc(NC(=O)c2c(COC34CC5CC(CC(C5)C3)C4)nc(C3CCCCC3)n2O)c1` [Example 308, 3-{[5-(Adamantan-1-yloxymethyl)-2-cyclohexyl-3-hydroxy-3H-imidazole-4-carbonyl]-amino}-benzoic Acid]: the Kb at gastrin receptor is 18.6 nM.

Consider `O=C(O)c1cccc(NC(=O)c2nc(C3CCCCC3)[nH]c2COCC23CC4CC(CC(C4)C2)C3)c1` [Example 309, 3-{[5-(Adamantan-1-ylmethoxymethyl)-2-cyclohexyl-1H-imidazole-4-carbonyl]-amino}-benzoic Acid], for which the Kb on gastrin receptor was 24.5 nM.

Consider `Cc1ccc(NC(=O)c2nc(C3CCCCC3)[nH]c2COCC23CC4CC(CC(C4)C2)C3)cc1C(=O)O` [Example 310, 5-{[5-(Adamantan-1-ylmethoxymethyl)-2-cyclohexyl-1H-imidazole-4-carbonyl]-amino}-2-methyl-benzoic Acid], for which the Kb at gastrin receptor was 115 nM.

With `O=C(O)c1cccc(NC(=O)c2nc(-c3c(Cl)cccc3Cl)[nH]c2COC23CC4CC(CC(C4)C2)C3)c1` [Example 311, 3-{[5-(Adamantan-1-yloxymethyl)-2-(2,6-dichloro-phenyl)-1H-imidazole-4-carbonyl]-amino}-benzoic Acid], the Kb on gastrin receptor is 8.71 nM.

Regarding `Cc1cc(C)c(-c2nc(COC34CC5CC(CC(C5)C3)C4)c(C(=O)Nc3cccc(C(=O)O)c3)n2O)c(C)c1` [Example 312, 3-{[5-(Adamantan-1-yloxymethyl)-2-(2,4,6-trimethyl-phenyl)-3-hydroxy-3H-imidazole-4-carbonyl]-amino}-benzoic Acid], the Kb at gastrin receptor was 34.7 nM.

For `O=C(O)c1cccc(NC(=O)c2c(COC34CC5CC(CC(C5)C3)C4)nc(-c3c(Cl)cccc3Cl)n2O)c1` [Example 313, 3-{[5-(Adamantan-1-yloxymethyl)-2-(2,6-dichloro-phenyl)-3-hydroxy-3H-imidazole-4-carbonyl]-amino}-benzoic Acid], on gastrin receptor, the Kb is 18.6 nM.

As for `O=C(O)c1cccc(NC(=O)c2c(COC34CC5CC(CC(C5)C3)C4)nc(C34CCC(CC3)CC4)n2O)c1` [Example 314, 3-{[5-(Adamantan-1-yloxymethyl)-2-bicyclo[2.2.2]oct-1-yl-3-hydroxy-3H-imidazole-4-carbonyl]-amino}-benzoic Acid], at gastrin receptor, the Kb is 6.31 nM.

As to “(3-{[5-(Adamantan-1-yloxymethyl)-2-cyclohet-4-enyl-1H-imidazole-4-carbonyl]-amino}-phenyl)-acetic Acid [Example 231]”, the “Gastrin pKb” value on gastrin receptor is on record as 7.49.

On to “(±)-3-{[5-(2-Adamantan-1-yl-ethyl)-2-[1-(2-methyl-propyl)-piperidin-2-yl])-1H-imidazole-4-carbonyl]-amino}-benzoic Acid [Example 140]”, for which the “Gastrin pKb” value at gastrin receptor came to 7.54.

With “(±)-5-{[5-(2-Adamantan-1-yl-ethyl)-2-[1-methyl-piperidin-2-yl])-1H-imidazole-4-carbonyl]-amino}-2-methyl-benzoic Acid [Example 141]”, on gastrin receptor, the “Gastrin pKb” value stood at 7.21.
